Assay results taken from US6620403B2, “In vivo chemosensitivity screen for human tumors” (priority 2000, dated 2003).
Values joined by “and” are separate entries in the source; they are usually repeats but may differ in a detail not shown here. Equal values may be shown once.

Legend:
[1] = test system: human NSCLC heterotransplants; experiment: Paclitaxel treatment and tumor response of human NSCLC heterotransplants grown subcutaneously in nude mice; type: in vivo
Description: The in vivo sensitivity to paclitaxel was studied in 34 successfully grown heterotransplants. The paclitaxel was intravenously administered to each mouse at a dosage rate of 60 mg/kg every 3 weeks. Treatment was initiated when the tumors reached a size of about 5 mm in diameter and strict standard clinical criteria (>50% tumor shrinkage) were used to define the tumor response. The heterotransplants were morphologically very similar to the original tumors. The response rate to paclitaxel was 21% (95% Cl 9-38%) which is equivalent to that reported in Phase II studies in patients with advanced NSCLC treated with paclitaxel alone. Tumor heterotransplants are thus proposed as relevant models to evaluate new potential anti-tumor agents for treatment of different cancers and to predict clinical response in individual patients. It is noted that the type of tumor utilized for evaluating chemosensitivity to anti-tumor agents comprises a range of cancers including, but not limited to, colon, head and neck, brain, melanoma, sarcoma, breast, ovarian, prostate, kidney and stomach cancers.
The fresh tumor samples were cut into 2-3 mm^3 pieces in sterile saline. Three or four pieces of non-necrotic tissue were injected subcutaneously into the lower back and anterior chest of 6 to 8 week old female Nu/Nu mice using a biomedical stainless steel implant needle and maintained under standardized conventional conditions. Animals transplanted with NSCLC tumors were checked for tumor growth over a 36 week period. Tumor formation measuring at least 5 mm in diameter was considered a positive take. Tumor formation was confirmed histologically in all cases. Temporary growth was defined as tumor formation followed by spontaneous regression before reaching a diameter of 5 mm. All other incidences were considered no growth.
The therapeutic experiments were designed as a standard Phase II clinical study with a target response rate of 20%, the only difference being that the tumor response was assessed as the average of two animals rather than in a single subject as in the case of a human Phase II trial.
The tumor grown after implantation from human to mouse was resected and cut into pieces following the same procedure used for the original tumor sample as previously described above, and transplanted subcutaneously into several animals. Tumors from the first mouse to mouse passage were allowed to grow until reaching 5 mm in diameter, at which time the animals were split into two groups: 1) control group—no treatment; and 2) treated group. The treated group was administered 60 mg/kg paclitaxel intravenously as a bolus in the tail vein. Tumor measurements were performed twice a week and the tumor volume was calculated using the formula, a×b^2/2 (a=longest diameter and b=shortest diameter). Partial tumor response was defined as an average reduction in the tumor volume of at least 50% in the animals of the treated group compared to the tumor volume measured in animals of the control group. Complete tumor response was defined as complete disappearance of the palpable tumor in both animals of the […].

[2] = test system: human NSCLC heterotransplants; experiment: as above; type: in vivo; remark: listed apart in the source
[3] = test system: NSCLC; conditions: single agent, cited from earlier work
[4] = First mouse to mouse passage, after second dose (day 21), 16 heterotransplants, number of responses (%)

CC(=O)O[C@H]1C(=O)[C@@]2(C)[C@H]([C@H](OC(=O)c3ccccc3)[C@]3(O)C[C@H](OC(=O)[C@H](O)[C@@H](NC(=O)c4ccccc4)c4ccccc4)C(C)=C1C3(C)C)[C@]1(OC(C)=O)CO[C@@H]1C[C@@H]2O [paclitaxel]
non-responders to one dose achieving a partial response after the second dose ([1]; 12 heterotransplants that did not respond with one dose): None
partial responses after one dose ([1]; 16 heterotransplants given two doses, 4/16, 95% CI 7%-52%): 25%
partial responses converted into complete response after two doses ([1]; 16 heterotransplants, second dose on day 21, number out of 4 partial responses): Three
effect of second dose on overall response rate ([1]; 16 heterotransplants, second dose on day 21 versus single dose): did not change the overall response rate
response rate ([1]; 21 heterotransplants, first mouse to mouse passage, 95% CI 8%-47%): 24%
overall response rate ([1]; 34 heterotransplants, first mouse to mouse passage, one single dose 60 mg/kg i.v., 95% CI 9-38%): 21%
Tumor Response/(%) Complete ([1]; Adenocarcinoma, first mouse to mouse passage, 11 heterotransplants, single dose 60 mg/kg i.v.): 0
Tumor Response/(%) Partial ([1]; Adenocarcinoma, first mouse to mouse passage, 11 heterotransplants, single dose 60 mg/kg i.v., number of responses (%)): 1 (9%)
Tumor Response/(%) Complete ([1]; First mouse to mouse passage, after first dose, 16 heterotransplants): 0
Tumor Response/(%) Partial ([1]; First mouse to mouse passage, after first dose, 16 heterotransplants, number of responses (%)): 4 (24%)
Tumor Response/(%) Complete [1, 4]: 3 (18%)
Tumor Response/(%) Partial [1, 4]: 1 (6%)
Tumor Response/(%) Complete ([1]; First passage, 21 heterotransplants tested on both first and second mouse to mouse passages): 0
Tumor Response/(%) Partial ([1]; First passage, 21 heterotransplants tested on both first and second mouse to mouse passages, number of responses (%)): 5 (24%)
Tumor Response/(%) Partial ([1]; Neuroendocrine carcinoma, first mouse to mouse passage, 1 heterotransplant, single dose 60 mg/kg i.v., number of responses): 1
Tumor Response/(%) Complete ([1]; Second passage, 21 heterotransplants tested on both first and second mouse to mouse passages): 0
Tumor Response/(%) Complete ([1]; Squamous carcinoma, first mouse to mouse passage, 20 heterotransplants, single dose 60 mg/kg i.v.): 0
Tumor Response/(%) Partial ([1]; Squamous carcinoma, first mouse to mouse passage, 20 heterotransplants, single dose 60 mg/kg i.v., number of responses (%)): 4 (20%)
Tumor Response/(%) Complete ([1]; TOTAL, first mouse to mouse passage, 34 heterotransplants, single dose 60 mg/kg i.v., number of responses (%)): 0 (0%)
Tumor Response/(%) Partial ([1]; TOTAL, first mouse to mouse passage, 34 heterotransplants, single dose 60 mg/kg i.v., number of responses (%), 60 mg/kg): 7
Tumor Response/(%) Partial ([1]; TOTAL, first mouse to mouse passage, 34 heterotransplants, single dose 60 mg/kg i.v., number of responses (%), listed as Paclitaxel, 60 mg/kg): 7 (21%)
Tumor Response/(%) Partial ([1]; Undifferentiated carcinoma, first mouse to mouse passage, 2 heterotransplants, single dose 60 mg/kg i.v., number of responses): 1
response rate ([2]; 21 heterotransplants, second mouse to mouse passage, 95% CI 11%-52%): 29%
Tumor Response/(%) Partial ([2]; Second passage, 21 heterotransplants tested on both first and second mouse to mouse passages, number of responses (%)): 6 (29%)
response rate in the individual Phase II studies ([3]; each of four Phase II studies, previously untreated NSCLC patients): 10% and 21% and 24% and 38%
reported overall response rate ([3]; four Phase II studies, total of 160 previously untreated NSCLC patients): 24%
